The structures appear in SMILES notation. “Also recorded” adds a separate entry of the source.

Common to all, as to type: cell-based
The test system of experiment [1] is sensory epithelial region of postnatal day 3 OCs. The experiment can be described thus: EdU-labeling of mitotically-active cells in postnatal organ of Corti. Particulars: 0.5 or 2.0 μM, 72 hours, vs vehicle. The method, then: FIG. 21 depicts EdU-labeling of mitotically-active cells in the postnatal organ of Corti in response to Tideglusib treatment. Postnatal day 3 OCs were harvested and cultured in vitro for 24 hours prior to the addition of culture media containing 10 μM EdU in the presence of either vehicle alone (DMSO) or tideglusib (TIDE) at a final concentration of 0.5 or 2.0 μM. Organotypic cultures were cultured continuously in the presence of these agents for 72 hours prior to fixation and visualization of EdU-positive nuclei as described above. Images of the middle turn of the OC from each group are shown. Brackets denote the sensory epithelial region in each image.
A targeted pilot experiment was conducted in which postnatal OCs were cultured continuously for 72 hours in the presence of EdU and either tideglusib or vehicle alone to assess whether the GSK3 inhibitor was capable of inducing a mitotic response in the sensory epithelial region of the OC. […] Follow-up analyses will indicate whether this tideglusib-induced proliferative response in the OC involves supporting cells, hair cells, or both, using cell type-specific markers.

The test system of experiment [2] is organotypic cultures of murine OCs. The experiment in a line: Hair cell counts in neomycin-damaged OC cultures treated with TIDE and/or siHES1 lipofection complexes. Particulars: neomycin 0.7 mM 24 h; 10.0 μM TIDE, siHES1 20 nM lipofection complexes (FIG. 22). The method, then: FIG. 22 depicts hair cells (Myo7a+ cells) quantified from the mid-apical and middle regions of organotypic cultures of murine OCs following a 24 h exposure to neomycin (0.7 mM) and subsequent recovery in the presence or absence of the GSK3 inhibitor Tideglusib (TIDE) and/or siHES1 (20 nM) lipofection complexes (JetSI, Polyplus).
FIG. 23 depicts hair cells (Myo7a+ cells) quantified from the mid-apical and middle regions of organotypic cultures of murine OCs following a 24 h exposure to neomycin (0.7 mM) and subsequent recovery in the presence or absence of the GSK3 inhibitor Tideglusib (TIDE) and/or siHES1 (20 nM) lipofection complexes (JetSI, Polyplus).
FIG. 25 depicts hair cells (Myo7a+ cells) quantified from the mid-apical, middle, and mid-basal regions of organotypic cultures of murine OCs following a 24 h exposure to neomycin (0.7 mM) and subsequent recovery in the presence or absence of the GSK3 inhibitor Tideglusib (TIDE) and/or siHES1 (20 nM) lipofection complexes (JetSI, Polyplus). One set of NEO-ablated OCs were treated with TIDE then siHes1 in the presence of 2 ng/mL FGF-2 as a media supplement with the aim of potentially enhancing the effects of Tideglusib.
The protocol described above for BIO is used, substituting the addition of BIO for 10.0 μM Tideglusib (TIDE). A third treatment group is added, where Tideglusib is included in the culture medium after siHes1, parallel to the other protocols: on P4 or P5 (depending on whether there was an ototoxic insult to simulate hair cell loss) the control media is added with or without the inclusion of 10.0 μM TIDE; on P7 siHes1 is added in the presence of absence of TIDE; and on P9 10.0 μM Tideglusib is included in the media for a subset of cultures. On P11, all media is replaced with fresh media without any therapeutics. On P12, the tissues are fixed for immunolabeling. An example of comparative analyses from this treatment paradigm, following an exposure to the ototoxic aminoglycoside, NEO, is depicted in FIG. 22.
This experimental paradigm was again repeated adding additional treatment groups where FGF-2 was optionally included in the culture medium at 2 ng/mL at P5, P7, and P9 for a subset of cultures.

The test system of experiment [3] is postnatal (P3) murine (CD1) OC explants. The experiment can be described thus: siHes1 NPs with Tideglusib in neomycin-ablated OC explants. The method, then: Postnatal (P3) murine (CD1) OC explants were exposed to the ototoxic aminoglycoside, neomycin, for 24 h and then treated with 60 nM siHes1 NP alone; the GSK3 inhibitor, Tideglusib (TIDE), alone (2 μM); or a combination of 60 nM siHes1 NP with escalating doses of Tideglusib (0.5, 2, or 10 μM) for 6d prior to fixation and immunolabeling against the HC-specific marker, Myo7a. Middle turn as fixed reference among images shown.
NEO-ablated OCs were treated with a suboptimal (60 nM) dose of siHes1 NPs either alone or in combination with escalating doses of TIDE. […] The sustained release profile of siHes1 NPs mimics staged application of the two therapeutics.
Applicants hypothesized that the delayed, yet sustained, release of siHes1 from biocompatible PLGA NPs would recapitulate the therapeutic attributes of staged application of a GSK3 inhibitor and siRNA against Hes1 when the two drugs were co-administered. To test this hypothesis, a sub-maximal efficacious dose (60 nM) of siHes1 NPs with escalating doses (0.5, 2, and 10 μM) of the GSK3I, tideglusib, in order to have sufficient experimental margin were used to assess a regenerative dose-response profile in organotypic cultures of neomycin (NEO)—exposed organs of Corti (OCs). Using this paradigm, NEO-ablated OCs were subsequently cultured with siHes1 NPs alone or in combination with Tideglusib over the course of six days prior to fixation and immunohistological analyses.

In the case of `O=c1sn(-c2cccc3ccccc23)c(=O)n1Cc1ccccc1` [TIDE, tideglusib], the “mitotic response (EdU-positive nuclei) in sensory epithelial region” value in experiment [1] is given as “greater incidence of EdU-positive nuclei; also recorded: markedly greater mitotic response in the sensory epithelial region”. Moreover, in experiment [2], the “Hair Cell Counts ± SEM, Mid-apical turn” value is recorded as 9.1 ± 1.6 and the “Hair Cell Counts ± SEM, Middle Turn” value amounted to 2.8 ± 0.8. In addition, the “siHes1 NP regenerative efficacy, middle turn” value in experiment [3] (10 μM Tideglusib with 60 nM siHes1 NPs, relative to siHes1 NPs alone) was “statistically-significant increases”. Also, in experiment [3] (2 and 10 μM Tideglusib with 60 nM siHes1 NPs, relative to siHes1 NPs alone), the “siHes1 NP regenerative efficacy, basal turn” value is listed as “statistically-significant increases”. The “HC numbers / densities with combined treatment” value in experiment [3] (NEO-ablated OCs, 60 nM siHes1 NP plus Tideglusib 0.5, 2 or 10 μM, 6 d) is “concentration-dependent enhancement of siHes1 NP-induced hair cell (HC) regeneration”. Further, the “regenerative response (HC numbers)” value in experiment [3] (Tideglusib alone (2 μM), NEO-ablated OCs) is listed as “did not induce a statistically significant regenerative response”. Besides, in experiment [3] (Tideglusib with 60 nM siHes1 NPs vs siHes1 NPs alone), the “siHes1 NP regenerative efficacy, mid-apical region” value was “no statistically-significant differences between the treatment groups”.

These data come from patent US11013752B2, “Combination therapies for inner ear sensory hair cell regeneration/replacement” (Hough Ear Institute, priority 2016, dated 2021).
